For data set [1], the system named is HT-22 cells (immortalized hippocampal neurons). As to the kind of experiment: HT-22 Cell Neuroprotection Assay (glutamate insult, calcein AM viability). It is filed as cell-based, murine. The settings on record: ~16 h. On the procedure:
HT-22 cells (immortalized hippocampal neurons of murine origin) were maintained in DMEM media (Life Technologies, Inc., Gaitherburg, MD) supplemented with 10% charcoal-stripped FBS (HyClone Laboratories, Inc., Logan, UT) and 20 µg/mL gentamycin, according to standard culture conditions.
Cells were plated at a density of 5,000 cells/well in clear-bottomed Nunc 96-well plates (Fisher Scientific, Orlando, FL) and allowed to incubate overnight. Steroids dissolved in DMSO were added at concentrations ranging from 0.01-10 µM and were co-administered with glutamate (10 mM or 20 mM). DMSO was used at concentrations of 0.1% vol/vol as a vehicle control and had no discernible effect on cell viability. After ~16 h of glutamate exposure, cells were rinsed with PBS, pH 7.4, and viability was assessed by the addition of 25 µM calcein AM (Molecular Probes, Inc., Eugene, OR) in PBS for 15 min at room temperature. Fluorescence was determined (excitation 485, emission 530) using a fluorescence FL600 microplate reader (Biotek, Winooski, VT). Cells that were lysed by addition of methanol were used for blank readings. All data were normalized to % cell death, as calculated by (control value - insult value)/control value x 100.

Data set [2] concerns cortical neurons. Put plainly: NMDA-induced neuronal cell death in mixed cortical neuron/glial cultures (Trypan blue counting). It is filed as cell-based, mouse. On the procedure: Glial cell cultures: Glial cell cultures were prepared from P1 mice. Briefly, cortex from P1 mice were dissected and digested with 0.025% trypsin for 30-40 min. After trituration, the cells were plated on poly-D-lysine/laminin coated glass-bottom dishes at a density of approximately 5 x 10^6 cells per dish. Cells were grown for 7-10 days in Eagle's minimal essential medium supplemented with 10% fetal bovine serum, 10% horse serum, 10 ng/ml epidermal growth factor, 2 mM glutamine and 20 mM glucose. Cultures were kept at 37°C in a humidified CO2 atmosphere until they reached confluence. Cultures were then used to support neurons (see below).
Cortical neuronal cultures: Cortical neurons were prepared from E15-16 mouse embryos. Dissociated cortical cells (at a density of 5x 10^6 cells per dish) were plated on a layer of confluent glial cells (7-10 days in vitro), into Eagle's minimal essential medium supplemented with 5% fetal bovine serum, 5% horse serum, 2 mM glutamine, and 21 mM glucose. Cultures were kept at 37°C in a humidified 5% CO2 atmosphere. After 3-5 days in vitro, non-neuronal cell division was halted by exposure to 10^-5 M cytosine arabinoside for 2 days, and cultures were shifted to a growth medium identical to the plating medium but lacking […]. Cultures 9-14 days in vitro were used for the experiments.
Neuronal cell death: Mixed neuron/glial cultures were exposure to NMDA (30 µM) for 24 hours in medium stock (MS) (minimal essential medium with 15.8 mM NaHCO3 and 20 mM glucose, pH 7.4) at 37°C. Cell death was assessed […] by counting cells that stained with Trypan blue (0.4% for 10 minutes at 37°C). Stained neurons were counted from three random fields per dish. For the experiments to test the neuroprotective effect of the 17-β-estradiol and the adamantyl-modified analog thereof, cultures were incubated with the drugs for various time periods prior to when NMDA was added to the medium. Results

The mark [3] stands for this setting: 10 mM glutamate co-administered, read-out: Sterioid concentration needed to protect 50% of neurons killed by 10 mM Glutamate ED50.
The mark [4] stands for this setting: 20 mM glutamate co-administered, read-out: Sterioid concentration needed to protect 50% of neurons killed by 20 mM Glutamate ED50.

Where two headings read alike, the source gives them in different places.

In turn, `Cc1c(O)c(C(C)(C)C)cc2c1CC[C@@H]1[C@@H]2CC[C@]2(C)C(=O)CC[C@@H]12` [ZYC-25, 2-(1,1-Dimethylethyl)-3-hydroxy-4-methylestra-1,3,5(10)-trien-17-one] yielded a melting point of 190 to 192 °C.

Consider `C[C@@]12CC[C@H]3c4ccc(O)cc4CC[C@@H]3[C@H]1CC[C@H]2O` (single isomer, unassigned; ent-17) [Ent-(17 β)-Estradiol, ent-17β-estradiol], for which the EC50 in data set [1] (setting [3]) was 1.07 µM; in data set [1] (setting [4]) it was 1.27 µM.

Turning to `C[C@]12CC[C@@H]3c4ccc(O)cc4CC[C@H]3[C@@H]1CC[C@H]2O` [17 α-Estradiol, 17α-estradiol], the EC50 in data set [1] (setting [3]) is 3.1 µM; in data set [1] (setting [4]) it was 16.1 µM.

For `CC12CCC3c4cc(C56CC7CC(CC(C7)C5)C6)c(O)cc4CCC3C1CCC2O` (stereo not drawn) [ZYC-33, Ent-(17β)-2-(1-Adamantyl)estra-1,3,5(10)-triene-3,17-diol], the EC50 in data set [1] (setting [3]) was 0.065 µM; in data set [1] (setting [4]), 0.019 µM.

Take `Cc1c(O)c(C23CC4CC(CC(C4)C2)C3)cc2c1CC[C@@H]1[C@@H]2CC[C@]2(C)C(=O)CC[C@@H]12` [ZYC-26, 2-(1-admantanyl)-3-hydroxy-4-methylestra-1,3,5(10)-trien-17-one]: the melting point fell in the range of 262 to 263 °C.

Regarding `CC(C)(C)c1cc2c(cc1O)CCC1C2CCC2(C)C(O)CCC12` (stereo not drawn) [ZYC-34, Ent-(17β)-2-(1,1-dimethylethyl)estra-1,3,5(10)-triene-3,17-diol], the values for the EC50 in data set [1] (setting [3]) and in data set [1] (setting [4]) were 0.24 µM and 0.26 µM, respectively.

On to `C[C@]12CC[C@@H]3c4ccc(O)cc4CC[C@H]3[C@@H]1CC[C@@H]2O` [17-β Estradiol, 17-β-estradiol], for which, in data set [2] (10 µM drug, pre-incubation, 30 µM NMDA for 24 hours (Figure 5)), the “reduction of neuronal loss due to NMDA exposure” value is “about 15%”. In addition, the figures for the EC50 in data set [1] (setting [3]) and in data set [1] (setting [4]) were 2.21 µM and 3.01 µM, respectively.

For the compound `C[C@]12CC[C@@H]3c4cc(C56CC7CC(CC(C7)C5)C6)c(O)cc4CC[C@H]3[C@@H]1CC[C@@H]2O` [ZYC-5, (17 β)-2-(1-Adamantyl)-estra-1,3,5(10)-triene-3,17-diol], in data set [2] (100 nM dosage, 30 µM NMDA for 24 hours (Figure 5)), the “protective effect against NMDA-induced neuronal death” value amounted to 10%. Besides, the “protection from neuronal death due to NMDA exposure” value in data set [2] (1 µM drug, pre-incubation, 30 µM NMDA for 24 hours (Figure 5)) is recorded as “about half”. In addition, the “effectiveness relative to 17-β-estradiol” value in data set [2] (1 µM versus 10 µM 17-β-estradiol (one-tenth the dosage)) is reported as “more than three times more effective”. Moreover, the “neuronal survival versus pre-incubation time” value in data set [2] (1 µM, 1-12 hours pre-incubation prior to NMDA exposure (Figure 6)) is recorded as “no significant difference”. In addition, the “neuronal protection versus pre-incubation time” value in data set [2] (1 µM, 24 hours pre-incubation prior to NMDA exposure (Figure 6)) is “best protection results”.

What is called melting point is the temperature of the solid-liquid transition.

(Values after patent US20060009438A2, “MODIFIED, HYDROXY-SUBSTITUTED AROMATIC STRUCTURES HAVING CYTOPROTECTIVE ACTIVITY” (Washington University, priority 2000, published 2006).)
